What was measured:
[1] = oral; cited from earlier work
[2] = PK study in rats, cassette dosing; assay type: in vivo, rat; conditions: % change vs. non-deuterated material, 5 mg/kg; for AUC, deuterium kinetic isotope effect (% change) / T½, deuterium kinetic isotope effect (% change): oral gavage or via catheter
Procedure: (§1) The key PK parameters (presented as a % change vs. non-deuterated materials) are presented in Table 3 to include half-life (T½), area under the curve (AUC), bioavailability (F) and blood-to-plasma ration (BPR). Pharmacokinetics of the deuterated tryptamines was studied in rats. In a typical experiment, run as a cassette dosing, two groups of 5 Wistar female rats (200-250 g) with surgically inserted jugular vein catheter (Charles River, Andover, MA) were fasted for 12 h and then administered 5 mg/kg of the deuterated and 5 mg/kg of the related non-deuterated analog, by oral gavage or via a catheter for each group. At time points 0, 15, 30, 60 min, and 2, 4, 8, and 24 h, the resulting plasma was analyzed for the parent molecule using LC/MS spectroscopy. Two separate groups of 5 animals were used for determining blood-to-plasma ratio (BPR). Each group was sacrificed at time points 15 and 30 min, respectively, and the concentration of the parent drug was determined in the […] and plasma by LC/MS spectroscopy.

[3] = Blood-to-plasma ratio (BPR), parent drug in brain and plasma of rats; assay type: in vivo, rat; conditions: % change vs. non-deuterated material; for BPR, 15 min, deuterium kinetic isotope effect (% change): rats sacrificed at 15 min; for BPR, 30 min, deuterium kinetic isotope effect (% change): rats sacrificed at 30 min
Procedure: as §1

rat liver microsomes = assay: Metabolic stability in rat liver microsomes (RLM)
hrMAO-A = target: T1, hrMAO-A (Homo sapiens, UniProt P21397); assay: Metabolic stability in the presence of hrMAO-A; assay type: in vitro ADME
T1 construct: purchased XenoTech Lot# 8213001
T1 sequence (P21397 1-527): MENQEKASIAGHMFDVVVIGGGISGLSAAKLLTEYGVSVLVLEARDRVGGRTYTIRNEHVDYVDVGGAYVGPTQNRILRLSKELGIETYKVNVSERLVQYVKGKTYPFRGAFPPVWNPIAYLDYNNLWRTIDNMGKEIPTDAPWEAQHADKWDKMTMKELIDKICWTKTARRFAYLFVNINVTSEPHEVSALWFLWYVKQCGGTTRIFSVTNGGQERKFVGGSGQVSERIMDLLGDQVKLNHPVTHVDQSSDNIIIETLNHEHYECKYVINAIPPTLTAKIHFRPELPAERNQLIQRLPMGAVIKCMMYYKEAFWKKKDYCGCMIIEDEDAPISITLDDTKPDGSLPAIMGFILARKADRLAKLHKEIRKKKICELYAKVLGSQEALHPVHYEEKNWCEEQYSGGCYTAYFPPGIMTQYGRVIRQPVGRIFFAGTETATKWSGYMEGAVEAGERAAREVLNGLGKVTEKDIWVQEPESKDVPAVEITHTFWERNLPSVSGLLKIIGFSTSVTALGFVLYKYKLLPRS
Procedure: The reaction mixture was prepared as described below. The co-dosed TAs were added into the reaction mixture at a final concentration of 1 microM each. The positive control, kynuramine (25 microM), was run simultaneously with the TAs in a separate reaction. The reaction mixture (without TAs or kynuramine) was equilibrated in a shaking water bath at 37° C. for 5 minutes. The reaction was initiated by the addition of the TAs or kynuramine, and the mixture was incubated in a shaking water bath at 37° C. Aliquots (100 microL) of the TA reaction mixture were withdrawn at 0, 5, 10, 20, 30, 60, and 120 minutes. Aliquots (100 microL) of the positive control reaction mixture were withdrawn at 0 and 30 minutes. TA and kynuramine samples were immediately combined with 100 microL of ice-cold 100% MeCN containing 0.1% formic acid and IS to terminate the reaction. The samples were then mixed and centrifuged to precipitate proteins. All TA samples were assayed by LC-HRAMS. The PARR (analyte to IS) at each time point was compared to the PARR at time 0 to determine the percent remaining at each time point. Reaction composition: hrMAO 0.02 mg/mL; Potassium Phosphate, pH 7.4 100 mM; Magnesium Chloride 5 mM; Test Articles (each) 1 microM.

5-HT1A [4] = target: T2, 5-HT1A (Homo sapiens, UniProt P08908); assay: Receptor function assay, Gi stimulation (reduction in cAMP levels); assay type: cell-based
T2 construct: expressed in transfected cells; host or cells: CHO-K1 or HEK293
T2 sequence (P08908 1-422): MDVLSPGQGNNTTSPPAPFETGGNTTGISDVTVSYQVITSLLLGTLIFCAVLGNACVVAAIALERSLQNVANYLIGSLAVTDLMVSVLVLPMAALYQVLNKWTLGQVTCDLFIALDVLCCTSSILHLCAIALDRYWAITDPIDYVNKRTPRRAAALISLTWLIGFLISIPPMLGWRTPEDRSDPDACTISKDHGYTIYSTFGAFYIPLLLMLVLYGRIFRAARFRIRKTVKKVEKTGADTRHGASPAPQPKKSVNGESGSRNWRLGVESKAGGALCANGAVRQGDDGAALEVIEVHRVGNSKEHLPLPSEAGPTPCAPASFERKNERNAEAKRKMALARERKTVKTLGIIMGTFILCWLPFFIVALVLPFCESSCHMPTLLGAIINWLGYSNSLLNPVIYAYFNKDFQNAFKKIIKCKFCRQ
Procedure: Receptor Function Assays: 5-HT1A receptor-mediated Gi stimulation (reduction in cyclic adenosine monophosphate (cAMP) levels) and 5-HT2(A,B,C) receptor-mediated Gq stimulation (phosphoinositide hydrolysis leading to the production of inositol phosphate 1 (IP1))-canonical signaling pathways—were measured as previously described (Canal et al., 2013), for example, with a homogeneous time-resolved fluorescence (HTRF) capable microplate reader (e.g., Mithras LB 940, Berthold) using commercially-available kits employing Fluorescence Resonance Energy Transfer (FRET) technology (e.g., LANCE Ultra cAMP TR-FRET (PerkinElmer) and IP-One HTRF (Cisbio) kits). Briefly, CHO-K1 or HEK293 cells expressing serotonergic receptors were incubated with test compounds in stimulation buffer. After equilibration, the reaction was terminated with the donor and acceptor fluorescent conjugates in lysis buffer, and FRET was measured. Data were fit to non-linear curves to calculate potencies (e.g., EC50) and efficacies (e.g., EMAX), relative to positive controls (e.g., serotonin).

5-HT1A [5] = target: T2, 5-HT1A; assay: Receptor affinity assay, radioligand competition binding
Procedure: Receptor Affinity Assays: 5-HT1A, 5-HT2(A,B,C) receptor affinities were determined by radioligand competition binding. Membranes from CHO-K1 or HEK293 cells expressing serotonergic receptors were collected and incubated in assay buffer with Kd concentrations of radioligands and tests compounds that compete for receptor binding sites. After equilibration, the reaction was terminated by collecting ligand-receptor-membrane complexes (Microbeta, PerkinElmer), and radioactivity was measured by a scintillation counter (Microbeta2, PerkinElmer). Data were fit to non-linear curves, and Ki values were calculated per the Cheng-Prusoff equation.

## COc1cc(CCNCc2ccccc2OC)c(OC)cc1Cl [2C-C-NBOMe, 2-(4-Chloro-2,5-dimethoxyphenyl)-N-[(2-methoxyphenyl)methyl]ethan-l-amine]
[1]
  orally active dose, as low as: 25 µg
  very strong psychedelic doses: 500 to 700 µg

## [2H]C([2H])(Cc1c[nH]c2ccc(OC)cc12)N(C)C [5-MeO-DMT-α,α-d2]
[2]
  AUC, deuterium kinetic isotope effect (% change): 60%
  T½, deuterium kinetic isotope effect (% change): 30%
[3]
  BPR, 15 min, deuterium kinetic isotope effect (% change): 120%
  BPR, 30 min, deuterium kinetic isotope effect (% change): 180%

## [2H]C([2H])([2H])N(C([2H])([2H])[2H])C([2H])([2H])C([2H])([2H])c1c[nH]c2ccccc12 [DMT-d10]
Rat liver microsomes; RLM, d8 and d10 analogs of DMT
  % Remaining of Initial 0 min: 100%
Rat liver microsomes; RLM, d8 and d10 analogs of DMT, 10 min
  % Remaining of Initial 10 min: 56.0%
Rat liver microsomes; RLM, four test articles
  % Remaining of Initial 0 min: 100%
Rat liver microsomes; rat liver microsomes
  metabolic stability vs. less deuterated DMT analogs: Further enhancement of metabolic stability
hrMAO-A; MAO-A enzymatic assay
  stability in the MAO-A enzymatic assay vs. less deuterated DMT analogs: superiority
hrMAO-A; hrMAO-A, d8 and d10 analogs of DMT
  % Remaining of Initial 0 min: 100.0%
hrMAO-A; hrMAO-A, d8 and d10 analogs of DMT, 5 min
  % Remaining of Initial 5 min: 99.0%
hrMAO-A; hrMAO-A, four test articles
  % Remaining of Initial 0 min: 100%

## CN(C)CCc1c[nH]c2ccccc12 [DMT]
Rat liver microsomes; RLM, four test articles
  % Remaining of Initial 0 min: 100%
Rat liver microsomes; RLM, four test articles, 20 min
  % Remaining of Initial 20 min: 41.0%
hrMAO-A; hrMAO-A, four test articles
  CLint: 0.638 mL/min/ mg protein
  % Remaining of Initial 0 min: 100%

## [2H]C([2H])(Cc1c[nH]c2cccc(O)c12)N(C)C [PI-α,α-d2]
5-HT1A [4]
  EC50: 200 nM
5-HT1A [5]
  Ki: 510 nM
[2]
  AUC, deuterium kinetic isotope effect (% change): 75%
  T½, deuterium kinetic isotope effect (% change): 50%
[2]; female, Wistar, rat, plasma, oral, read-out: F (bioavailability), deuterium kinetic isotope effect (% change)
  bioavailability: 45%
[3]
  BPR, 15 min, deuterium kinetic isotope effect (% change): 100%
  BPR, 30 min, deuterium kinetic isotope effect (% change): 150%

Source: US20230066286A1, “DEUTERATED TRYPTAMINE DERIVATIVES AND METHODS OF USE” (priority 2020, published 2023)
